Reference: patent publication US9510598B2, “Nitrogen-containing heterocyclic compounds for plant disease control” (BAYER CROPSCIENCE AG, priority 2012, dated 2016)

Assay type: physicochemical
Conditions: HPLC on reversed phase columns, method [a]: pH 2.7, 0.1% formic acid in water / acetonitrile, linear gradient 10% to 95% acetonitrile

Structure (SMILES) | log P
Cc1nn(C2CCC2)cc1CNC(=O)C1(C)CC(c2ccc3ncc(Br)cc3c2)=NO1 (stereo not shown) [compound 633] | 2.92[a]
C#Cc1cnc2ccc(C3=NOC(C)(C(=O)NCc4ccc5ccccc5n4)C3)cc2c1 (stereo not shown) [compound 253] | 2.45^[a]
C#Cc1cnc2c(C)cc(C3=NOC(C)(C(=O)NC(C)C)C3)cc2c1 (stereo not shown) [compound 571] | 3.06[a]
Cc1nn(C2CCCC2)cc1CNC(=O)C1(C)CC(c2ccc3ncc(Br)cc3c2)=NO1 (stereo not shown) [compound 630] | 3.04[a]
C#Cc1cnc2ccc(C3=NOC(C)(C(=O)NCC4CCCN4CC)C3)cc2c1 (stereo not shown) [compound 232] | 1.22^[a]
CC1(C(=O)NCC(F)F)CC(c2ccc3ncc(Br)cc3c2)=NO1 (stereo not shown) [compound 653] | 2.56[a]
CC(C)C(C)(C)NC(=O)C1(C)CC(c2ccc3ncc(Br)cc3c2)=NO1 (stereo not shown) [compound 325] | 4.19[a]
CCCCCn1cc(CNC(=O)C2(C)CC(c3ccc4ncc(Br)cc4c3)=NO2)c(C)n1 (stereo not shown) [compound 655] | 3.31[a]
CC1(C(=O)NC(COc2ccc(F)cc2)C2CC2)CC(c2ccc3ncc(Br)cc3c2)=NO1 (stereo not shown) [compound 315] | 3.99[a]
COC1(C(=O)NC2CCC2)CC(c2cc(C)c3ncc(Br)cc3c2)=NO1 (stereo not shown) [compound 603] | 3.58[a]
CC(NC(=O)C1(C)CC(c2ccc3ncc(Br)cc3c2)=NO1)c1ccc(OC(F)(F)F)cc1 (stereo not shown) [compound 344] | 4.16[a]
C#Cc1cnc2c(C)cc(C3=NOC(OC)(C(=O)NCC4COC(C)(C)O4)C3)cc2c1 (stereo not shown) [compound 605] | 2.92[a]
C#Cc1cnc2ccc(C3=NOC(C)(C(=S)NCC4COC(C)(C)O4)C3)cc2c1 (stereo not shown) [compound 513] | 3.44[a]
Cc1csc(CNC(=O)C2(C)CC(c3ccc4ncc(Br)cc4c3)=NO2)n1 (stereo not shown) [compound 649] | 2.56[a]
C#CC1(C(=O)NCc2cnc(C)cn2)CC(c2ccc3ncc(Br)cc3c2)=NO1 (stereo not shown) [compound 628] | 2.41[a]
C#Cc1cnc2ccc(C3=NOC(C)(C(=O)NC4CCN(C)CC4)C3)cc2c1 (stereo not shown) [compound 598] | 1.17[a]
CC(C)NC(=O)C1(F)CC(c2ccc3ncc(Br)cc3c2)=NO1 (stereo not shown) [compound 280] | 2.69[a]

Other lines, results leading:

log P | Structure (SMILES)
2.20[a] | COc1ccc(CNC(=O)C2(C)CC(c3ccc4ncc(Br)cc4c3)=NO2)nc1 (stereo not shown) [compound 666]
3.50[a] | C#Cc1cnc2ccc(C3=NOC(C)(C(=O)N(OC)C(C)CC)C3)cc2c1 (stereo not shown) [compound 658]
1.40[a] | C#Cc1cnc2ccc(C3=NOC(C)(C(=O)NCc4ccncc4OC)C3)cc2c1 (stereo not shown) [compound 676]
1.78[a] | C#Cc1cnc2ccc(C3=NOC(C)(C(=O)NCc4ccncn4)C3)cc2c1 (stereo not shown) [compound 663]
1.40[a] | COc1ccncc1CNC(=O)C1(C)CC(c2ccc3ncc(Br)cc3c2)=NO1 (stereo not shown) [compound 670]
2.54[a] | COc1cc(CNC(=O)C2(C)CC(c3ccc4ncc(Br)cc4c3)=NO2)ccn1 (stereo not shown) [compound 671]

Same assay, conditions: HPLC on reversed phase columns, method [a]: pH 2.7, 0.1% formic acid in water and acetonitrile, linear gradient 10% to 95% acetonitrile

Structure (SMILES) | log P
CC1(C(=O)NCc2ccnc(O)c2)CC(c2ccc3ncc(Br)cc3c2)=NO1 (stereo not shown) [compound 765] | 1.72[a]
CC1(C(=O)NCc2cnccn2)CC(c2ccc3ncc(Br)cc3c2)=NO1 (stereo not shown) [compound 706] | 2.10[a]
C#Cc1cnc2ccc(C3=NOC(C)(C(=O)NCCc4ccc(C(F)(F)F)cc4Cl)C3)cc2c1 (stereo not shown) [compound 766] | 3.76[a]
Cc1cnccc1CNC(=O)C1(C)CC(c2ccc3ncc(Br)cc3c2)=NO1 (stereo not shown) [compound 695] | 1.46[a]
CCn1cc(NC(=O)C2(C)CC(c3ccc4ncc(Br)cc4c3)=NO2)cn1 (stereo not shown) [compound 694] | 2.45[a]
CCn1cc(CNC(=O)C2(C)CC(c3ccc4ncc(Br)cc4c3)=NO2)c(C(F)(F)F)n1 (racemic) [compound 821] | 3.13[a]
COc1ccc(CCNC(=O)C2(OC)CC(c3ccc4ncc(Br)cc4c3)=NO2)cc1OC (stereo not shown) [compound 712] | 2.94[a]
C#Cc1cnc2ccc(C3=NOC(C)(C(=O)NCc4cnc(OC)nc4)C3)cc2c1 (stereo not shown) [compound 689] | 2.01[a]
CC1(C(=O)NCCC2CCCO2)CC(c2ccc3ncc(Br)cc3c2)=NO1 (stereo not shown) [compound 713] | 2.39[a]
COc1ncc(CNC(=O)C2(C)CC(c3ccc4ncc(Br)cc4c3)=NO2)cn1 (stereo not shown) [compound 688] | 2.25[a]
CC(C)c1ccnc(CNC(=O)C2(C)CC(c3ccc4ncc(Br)cc4c3)=NO2)c1 (stereo not shown) [compound 750] | 2.05[a]
C#Cc1cnc2ccc(C3=NOC(OC)(C(=O)NCCC4CC4)C3)cc2c1 (stereo not shown) [compound 719] | 2.78[a]
CC1(C(=O)NCc2ccc(O)nc2)CC(c2ccc3ncc(Br)cc3c2)=NO1 (stereo not shown) [compound 807] | 1.72[a]
CC1(C(=O)N(Cc2cc(F)cc3c2C(C)(C)CCC3)C2CC2)CC(c2ccc3ncc(Br)cc3c2)=NO1 (stereo not shown) [compound 815] | 6.11[a]
CC1(C(=O)NCc2ccnc(F)c2)CC(c2ccc3ncc(Br)cc3c2)=NO1 (stereo not shown) [compound 803] | 2.51[a]
C#Cc1cnc2ccc(C3=NOC(OC)(C(=O)NCc4cnccn4)C3)cc2c1 (stereo not shown) [compound 708] | 1.85[a]
CCC(C)Oc1cc(CNC(=O)C2(C)CC(c3ccc4ncc(Br)cc4c3)=NO2)ccn1 (stereo not shown) [compound 759] | 3.48[a]
CCn1cc(CNC(=O)C2(C)CC(c3ccc4ncc(Br)cc4c3)=NO2)c(Cl)n1 (stereo not shown) [compound 704] | 2.84[a]
C#Cc1cnc2ccc(C3=NOC(C)(C(=O)NCc4ccc(OC)nc4)C3)cc2c1 (stereo not shown) [compound 681] | 2.37[a]
C#Cc1cnc2ccc(C3=NOC(C)(C(=O)NCc4cncc(C#N)c4)C3)cc2c1 (stereo not shown) [compound 779] | 2.10[a]
C#Cc1cnc2ccc(C3=NOC(C)(C(=O)NCc4cccc(CC)n4)C3)cc2c1 (stereo not shown) [compound 749] | 1.67[a]
C/C(=N\O)NC(=O)C1(C)CC(c2ccc3ncc(Br)cc3c2)=NO1 (stereo not shown) [compound 723] | 2.04[a]
C#Cc1cnc2ccc(C3=NOC(C)(C(=O)NCc4ccnc(F)c4)C3)cc2c1 (stereo not shown) [compound 802] | 2.23[a]
C#Cc1cnc2ccc(C3=NOC(C)(C(=O)NCc4ccnc(C)c4)C3)cc2c1 (stereo not shown) [compound 685] | 1.27[a]
Cn1c(C(=NOCc2cccc(NC(=O)C3(C)CC(c4ccc5ncc(Br)cc5c4)=NO3)n2)c2ccccc2)noc1=O (stereo not shown) [compound 707] | 4.49[a]
CC1(C(=O)N/C(=N/O)C2CC2)CC(c2ccc3ncc(Br)cc3c2)=NO1 (stereo not shown) [compound 740] | 2.35[a]

Same assay, conditions: method [a]: HPLC/LC-MS on reversed phase at pH 2.7, 0.1% formic acid in water / acetonitrile, gradient 10% to 95% acetonitrile

Structure (SMILES) | log P
CCn1cc(CNC(=O)C2(C)CC(c3ccc4ncc(C(F)=CC(F)(F)F)cc4c3)=NO2)c(C)n1 (stereo not shown) [compound 405] | 2.84[a]
C#Cc1cnc2ccc(C3=NOC(C)(C(=O)NC4=NCCO4)C3)cc2c1 (stereo not shown) [compound 460] | 1.52[a]
CCn1cc(CNC(=O)C2(C[Si](C)(C)C)CC(c3ccc4ncc(Br)cc4c3)=NO2)c(C)n1 (stereo not shown) [compound 413] | 2.83[a]
CC1(C(=O)NCc2nccs2)CC(c2ccc3ncc(Br)cc3c2)=NO1 (stereo not shown) [compound 488] | 2.32[a]
CC(C)NC(=O)C12ON=C(c3ccc4ncc(Br)cc4c3)C1C2C (racemic) [compound 403] | 3.11[a]
CCn1cc(CNC(=O)C2(C)ON=C(c3ccc4ncc(Br)cc4c3)C2OC)c(C)n1 (mixture of isomers) [compound 433] | 2.44[a]
COC(=O)CC1(C(=O)NC(C)C)CC(c2ccc3ncc(Br)cc3c2)=NO1 (racemic) [compound 387] | 2.66[a]

Same assay, conditions: method [a]: HPLC/LC-MS on reversed phase at pH 2.7, 0.1% formic acid in water / acetonitrile, linear gradient 10% to 95% acetonitrile

Structure (SMILES) | log P
CC1(C(=O)NCc2cc(Cl)cc(Cl)c2)CC(c2ccc3ncc(Br)cc3c2)=NO1 (stereo not shown) [compound 97] | 4.16^[a]
Cn1cncc1CNC(=O)C1(C)CC(c2ccc3ncc(Br)cc3c2)=NO1 (stereo not shown) [compound 203] | 2.14^[a]
CC1(C(=O)NCCc2ccc(Cl)cc2Cl)CC(c2ccc3ncc(Br)cc3c2)=NO1 (stereo not shown) [compound 110] | 4.16^[a]
C#Cc1cnc2ccc(C3=NOC(C)(C(=O)NCc4nncn4CC)C3)cc2c1 (stereo not shown) [compound 159] | 1.54^[a]
CC1(C(=O)NCC2CCC(C(F)(F)F)CC2)CC(c2ccc3ncc(Br)cc3c2)=NO1 (stereo not shown) [compound 119] | 4.01^[a]
C#Cc1cnc2ccc(C3=NOC(C)(C(=O)NCc4cccc(Cl)c4Cl)C3)cc2c1 (stereo not shown) [compound 172] | 3.58^[a]
CC1(C(=O)NCc2ccc(OC(F)(F)F)cc2)CC(c2ccc3ncc(Br)cc3c2)=NO1 (stereo not shown) [compound 101] | 3.92^[a]
C#Cc1cnc2ccc(C3=NOC(C)(C(=O)NCC#Cc4ccc(Cl)cc4)C3)cc2c1 (stereo not shown) [compound 229] | 3.65^[a]
CC(C)NC(=O)C1(CBr)CC(c2ccc3ncc(Br)cc3c2)=NO1 (stereo not shown) [compound 81] | 3.04^[a]
CCn1cc(CNC(=O)C2(C)CC(c3ccc4ncc(S(C)(=O)=O)cc4c3)=NO2)c(C)n1 (stereo not shown) [compound 151] | 1.6^[a]
CC1(C(=O)NCc2ccccc2Cl)CC(c2ccc3ncc(Br)cc3c2)=NO1 (stereo not shown) [compound 93] | 3.61^[a]
CC1(C(=O)NCC2CCCOC2c2ccccc2)CC(c2ccc3ncc(Br)cc3c2)=NO1 (stereo not shown) [compound 113] | 3.5^[a]
C#Cc1cnc2ccc(C3=NOC(C)(C(=O)NC4CCCCNC4=O)C3)cc2c1 (stereo not shown) [compound 230] | 1.98^[a]

Same assay, conditions: method [a]: HPLC/LC-MS on reversed phase at pH 2.7, 0.1% formic acid in water and acetonitrile, linear gradient 10% to 95% acetonitrile

Structure (SMILES) | Log P
COc1ccc(CNC(=O)C2(C)CC(c3cc4cc(Br)cnc4c(F)c3F)=NO2)cc1OC (stereo not shown) [compound 19] | 3.02^[a]
CCn1cc(CNC(=O)C2(C)CC(c3cc4cc(Br)cnc4c(F)c3F)=NO2)cn1 (stereo not shown) [compound 13] | 2.5^[a]

Same assay, conditions: reversed phase HPLC column; HPLC reversed phase, pH 2.7, 0.1% formic acid in water / acetonitrile, linear gradient 10% to 95% acetonitrile; calibration with alkan-2-ones; read-out: log P (HCOOH)

Structure (SMILES) | chromatographic logP
O/N=C(\Cl)c1ccc2ncc(Cl)cc2c1 [3-chloro-N-hydroxyquinoline-6-carboximidoyl chloride] | 1.96
O=Cc1ccc2ncc(I)cc2c1 [3-iodoquinoline-6-carbaldehyde] | 2.12
